# Assay results: ChEMBL document CHEMBL1201862, “PubChem BioAssay data set” (2004)
# Activity calls are given as the source filed them.
# What was measured:
# [1] = Trypanosoma cruzi growth suppression in host cells – NIH3T3 host cells, beta-gal luminescence, confirmation (AID 2044); format: functional, cell-based;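 note: intracellular parasites grown in NIH/3T3 mouse fibroblasts as host cells; luminescent beta-galactosidase reporter signal from transgenic T. cruzi replicating inside host cells; inhibitors lower the luminescence signal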
# [2] = NIH3T3 cell viability loss – ATP luminescence, mouse fibroblasts, counter-screen, dose response (AID 2010); format: functional, cell-based;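 note: cells exposed to compound for about 90 hours before reading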
# [3] = molecular target: Ephrin type-A receptor 4 (Mus musculus, UniProt Q03137); test: EphA4 ligand-binding antagonists – biochemical, colorimetric, mouse EphA4, primary screen (AID 689); format: functional
# [4] = molecular target: T1, Voltage-gated inwardly rectifying potassium channel KCNH2 (Homo sapiens, UniProt Q12809); test: concentration-dependent hERG rescue from blockers – cell-based, thallium flux, dose response (AID 2121); format: ADME
# [5] = test system: HEK293; test: EBV LMP1 TES2 canonical NF-kB signalling blockers – cell-based, HEK293, luciferase, cherry-pick, dose response (AID 588343); format: functional; settings: Homo sapiens
# [6] = molecular target: Nonstructural protein 1 (Influenza A virus, UniProt Q194T2); format: functional, Influenza A virus (A/California/07/2009(H1N1))
# [7] = fluconazole-exposed Candida albicans growth modulators – fluorescence, retest, confirmation (AID 2467); format: functional, cell-based
# [8] = cells; format: functional, cell-based
# [9] = test system: INS1; test: INS-1E survival protection against cytokine death – cell-based, luminescence, retest, dose response (AID 449756); format: functional; settings: Rattus norvegicus;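 note: cell death triggered by IL-1 beta plus TNF-alpha plus IFN-gamma mixture; protective hits raise ATP signal compared with cytokine alone wells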
# [10] = viability loss in Vero cells – cytotoxicity control for Vif-APOBEC3G degradation inhibitor project, dose response (AID 1117358); format: functional; settings: Vero
# [11] = luciferase reporter signal suppression in cells – H4 neuroglioma cells, luminescence, dose response (AID 1990); format: functional, cell-based
# [12] = cells; format: functional, cell-based; remark: listed apart in the source
# [13] = Luminescence Cell-Based Dose Retest to Confirm Inhibitors of Cancer Stem Cells. [Related pubchem assays (depositor defined):AID2717, AID2721]; format: functional; settings: Homo sapiens
# [14] = alpha-synuclein stem-loop luciferase translation blockers – H4 neuroglioma cells, luminescence, confirmation (AID 1988); format: functional, cell-based
# [15] = NIH-3T3 fibroblast cytotoxicity, dose response, cytotoxicity control, cell-based, fluorescence, Alamar Blue, secondary assay (AID 2327); format: functional;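 note: NIH-3T3 mouse fibroblasts cultured with fluconazole at 8 µg/mL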
# [16] = Luminescence Cell-Based Dose Response HTS to Identify Inhibitors of 5'UTR Stem-Loop Driven Prion Protein mRNA Translation in H4 Neuroglioblastoma Cells. [Related pubchem assays: 1827 (Project Summary), 1813 (Primary HTS)]; format: functional
# [17] = molecular target: Cytochrome P450 3A4 (Homo sapiens, UniProt P08684);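 note: CYP3A4 tested as one member of a cytochrome P450 panel screen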
# [18] = Shn3 3'UTR reporter signal decrease – cell-based, Clone20 osteoblasts, firefly luciferase, cherry-pick, set 2, Schnurri-3 inhibitor project, dose response (AID 720490); format: functional;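 note: actives lower the luminescence signal as inhibitors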
# [19] = loss of viability in HepG2 cells – cell-based, CellTiter-Glo, cherry-picked, cytotoxicity control for Shn3 inhibitor project, dose response (AID 624134); format: functional
# [20] = A Cell Based Secondary Assay To Explore Cytotoxicity of Compounds that Sensitize Mycobacterium Tuberculosis to Beta-Lactam Antibiotics.; format: functional
# [21] = reduction of Shn3 3'UTR-driven luciferase in osteoblasts – cell-based, Clone20 osteoblasts, firefly luciferase, cherry-picked, dose response (AID 624132); format: functional;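 note: firefly luciferase luminescence from reporter carrying the Shn3 3'UTR in osteoblasts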
# [22] = molecular target: T2, Cytochrome P450 1A2 (Homo sapiens, UniProt P05177);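 note: PubChem cytochrome P450 panel assay, CYP1A2 panel member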
# T2 sequence (P05177 whole entry): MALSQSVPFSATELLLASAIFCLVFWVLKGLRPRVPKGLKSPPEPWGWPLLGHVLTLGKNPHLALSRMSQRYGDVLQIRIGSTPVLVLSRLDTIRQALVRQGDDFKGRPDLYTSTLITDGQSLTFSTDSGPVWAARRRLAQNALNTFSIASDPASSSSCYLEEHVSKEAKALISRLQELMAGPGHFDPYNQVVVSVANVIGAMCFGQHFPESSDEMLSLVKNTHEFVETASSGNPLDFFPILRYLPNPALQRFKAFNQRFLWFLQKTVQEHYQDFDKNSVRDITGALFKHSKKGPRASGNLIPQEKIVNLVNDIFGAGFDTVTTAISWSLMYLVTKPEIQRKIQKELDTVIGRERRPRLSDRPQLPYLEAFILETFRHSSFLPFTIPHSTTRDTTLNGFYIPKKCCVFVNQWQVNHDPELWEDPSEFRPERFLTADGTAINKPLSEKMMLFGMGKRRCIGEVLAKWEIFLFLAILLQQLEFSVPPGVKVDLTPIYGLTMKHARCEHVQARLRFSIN
# [23] = molecular target: T1, Voltage-gated inwardly rectifying potassium channel KCNH2; settings: Potency
# [24] = non-specific 3'UTR reporter inhibition in Clone20-Shn3RL – cell-based, Renilla luciferase, cherry-picked, counter-screen for Shn3 inhibitor project, dose response (AID 624133); format: functional
# [25] = EF1alpha-driven Renilla reporter with control 3'UTR suppression – Clone20-Shn3RL cells, dual-Glo, cherry-pick, set 2, counter-screen for Shn3 3'UTR targeting project, dose response (AID 720724); format: functional, cell-based; settings: Dual-Go Shn3RL
# [26] = SNU-C1 cell viability reduction, dose response, CellTiter-Glo luminescence (AID 1117323); format: functional, cell-based
# [27] = cytotoxicity toward HT-29 cells – cell-based, CellTiter-Glo luminescence, IC50, dose response (AID 1117330); format: functional
# [28] = cytotoxicity toward HCT116 cells – cell-based, CellTiter-Glo luminescence, IC50, dose response (AID 1117332); format: functional; settings: HCT-116
# [29] = cytotoxicity toward Colo320 cells – cell-based, CellTiter-Glo luminescence, IC50, dose response (AID 1117334); format: functional; settings: COLO 320
# [30] = Reduced DLD-1 viability, concentration-response, CellTiter-Glo luminescence (AID 1117352); format: functional
# [31] = RKO cell viability reduction, dose response, CellTiter-Glo luminescence (AID 1117322); format: functional
# [32] = CellTiter-Glo luminescence survival assay, SW480 colon tumor line, concentration-response curve, half-maximal inhibitory concentration (AID 1117338); format: functional
# [33] = HCT116 cell viability decrease, GSK3B pretreatment – CellTiter-Glo, IC50, dose response (AID 1117339); format: functional; settings: HCT-116
# [34] = rise of 2N DNA cells, HeLa – IC50, dose response (AID 1117349); format: functional, cell-based
# [35] = rise of 4N DNA cells, HeLa – IC50, dose response (AID 1117351); format: functional, cell-based
# T1 sequence (Q12809 whole entry): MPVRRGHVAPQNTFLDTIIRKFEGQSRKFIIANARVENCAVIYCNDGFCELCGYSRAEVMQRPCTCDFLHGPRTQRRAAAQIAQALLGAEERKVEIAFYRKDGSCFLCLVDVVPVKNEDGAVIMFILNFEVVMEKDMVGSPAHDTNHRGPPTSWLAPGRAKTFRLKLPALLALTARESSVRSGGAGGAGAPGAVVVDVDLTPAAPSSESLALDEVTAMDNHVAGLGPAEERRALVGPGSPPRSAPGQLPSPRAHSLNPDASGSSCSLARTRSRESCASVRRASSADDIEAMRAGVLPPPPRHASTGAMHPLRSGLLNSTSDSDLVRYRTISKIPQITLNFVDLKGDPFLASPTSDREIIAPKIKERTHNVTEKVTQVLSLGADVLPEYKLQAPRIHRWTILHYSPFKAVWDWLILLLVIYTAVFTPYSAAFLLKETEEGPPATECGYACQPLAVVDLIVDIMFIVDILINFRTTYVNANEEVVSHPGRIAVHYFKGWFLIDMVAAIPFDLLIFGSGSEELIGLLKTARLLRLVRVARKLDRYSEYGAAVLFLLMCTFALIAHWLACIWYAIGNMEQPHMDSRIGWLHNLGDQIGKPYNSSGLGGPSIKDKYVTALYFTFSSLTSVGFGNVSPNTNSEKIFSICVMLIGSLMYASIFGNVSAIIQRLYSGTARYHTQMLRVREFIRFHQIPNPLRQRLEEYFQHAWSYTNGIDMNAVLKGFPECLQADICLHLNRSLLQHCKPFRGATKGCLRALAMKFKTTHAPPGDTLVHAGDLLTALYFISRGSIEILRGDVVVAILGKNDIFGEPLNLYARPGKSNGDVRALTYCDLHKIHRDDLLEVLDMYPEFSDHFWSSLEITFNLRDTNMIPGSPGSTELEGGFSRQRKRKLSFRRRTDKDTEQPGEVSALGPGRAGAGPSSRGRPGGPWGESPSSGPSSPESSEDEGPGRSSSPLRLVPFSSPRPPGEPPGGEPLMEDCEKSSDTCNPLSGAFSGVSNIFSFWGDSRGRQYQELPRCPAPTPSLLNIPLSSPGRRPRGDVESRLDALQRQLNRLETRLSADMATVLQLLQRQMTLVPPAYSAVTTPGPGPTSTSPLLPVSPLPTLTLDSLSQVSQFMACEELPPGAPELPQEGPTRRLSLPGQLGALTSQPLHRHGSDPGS
# Sequence of Ephrin type-A receptor 4 (Q03137 whole entry): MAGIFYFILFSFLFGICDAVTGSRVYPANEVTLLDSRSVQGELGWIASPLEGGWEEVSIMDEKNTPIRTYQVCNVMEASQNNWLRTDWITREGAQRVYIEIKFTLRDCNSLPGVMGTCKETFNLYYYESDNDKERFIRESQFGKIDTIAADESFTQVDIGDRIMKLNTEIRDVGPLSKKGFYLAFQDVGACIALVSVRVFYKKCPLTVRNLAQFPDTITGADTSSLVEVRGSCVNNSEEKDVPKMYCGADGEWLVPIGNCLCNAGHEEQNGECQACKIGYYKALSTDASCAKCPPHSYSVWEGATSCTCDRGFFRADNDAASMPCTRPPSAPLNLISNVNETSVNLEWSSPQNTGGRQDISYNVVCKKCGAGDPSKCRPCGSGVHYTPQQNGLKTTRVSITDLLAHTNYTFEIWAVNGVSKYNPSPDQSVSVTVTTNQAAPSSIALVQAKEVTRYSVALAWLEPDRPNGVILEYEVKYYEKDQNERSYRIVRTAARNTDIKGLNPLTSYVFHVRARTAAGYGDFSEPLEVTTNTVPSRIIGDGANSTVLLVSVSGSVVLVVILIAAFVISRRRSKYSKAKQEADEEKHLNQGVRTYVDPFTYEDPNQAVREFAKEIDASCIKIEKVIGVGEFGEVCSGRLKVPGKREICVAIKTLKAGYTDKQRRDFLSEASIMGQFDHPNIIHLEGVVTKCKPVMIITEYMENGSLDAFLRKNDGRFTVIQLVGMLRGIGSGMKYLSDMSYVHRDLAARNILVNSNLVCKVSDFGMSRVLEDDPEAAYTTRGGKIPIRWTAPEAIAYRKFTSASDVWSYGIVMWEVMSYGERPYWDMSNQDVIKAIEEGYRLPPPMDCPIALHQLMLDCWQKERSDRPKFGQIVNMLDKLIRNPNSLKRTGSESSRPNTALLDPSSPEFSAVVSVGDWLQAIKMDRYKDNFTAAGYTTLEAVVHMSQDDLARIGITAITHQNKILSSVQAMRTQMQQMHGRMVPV
# Sequence of Nonstructural protein 1 (Q194T2 whole entry): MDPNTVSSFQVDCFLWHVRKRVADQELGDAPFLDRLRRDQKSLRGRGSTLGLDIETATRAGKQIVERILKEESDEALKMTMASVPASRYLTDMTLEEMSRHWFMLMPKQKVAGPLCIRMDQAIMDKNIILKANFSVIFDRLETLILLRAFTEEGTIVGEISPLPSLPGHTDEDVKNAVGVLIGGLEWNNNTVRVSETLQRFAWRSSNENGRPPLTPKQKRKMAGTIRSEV
# Sequence of Cytochrome P450 3A4 (P08684 whole entry): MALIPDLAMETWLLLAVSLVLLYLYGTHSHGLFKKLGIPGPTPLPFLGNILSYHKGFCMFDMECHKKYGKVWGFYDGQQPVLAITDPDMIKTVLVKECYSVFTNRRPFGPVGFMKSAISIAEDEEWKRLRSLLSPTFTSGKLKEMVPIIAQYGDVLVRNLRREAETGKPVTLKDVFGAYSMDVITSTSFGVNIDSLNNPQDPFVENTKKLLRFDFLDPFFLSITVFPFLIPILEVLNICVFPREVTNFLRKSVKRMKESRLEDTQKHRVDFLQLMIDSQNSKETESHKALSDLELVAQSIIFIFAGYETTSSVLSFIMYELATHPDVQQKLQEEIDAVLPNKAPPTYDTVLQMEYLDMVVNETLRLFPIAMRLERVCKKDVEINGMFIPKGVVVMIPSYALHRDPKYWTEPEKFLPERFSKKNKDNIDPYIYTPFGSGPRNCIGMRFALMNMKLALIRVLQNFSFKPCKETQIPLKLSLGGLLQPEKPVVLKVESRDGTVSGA
smiles,measurement,setting,value
Cc1ccc(C)c(N(CC(=O)N/N=C/c2ccc(-c3ccc([N+](=O)[O-])cc3)o2)S(=O)(=O)c2ccccc2)c1,EC50,[1],1.65 µM (active)
same,EC50,[2],> 30 µM (not active)
same,IC50,[3],> 100 µM (not active)
CC(C)c1ccc(/C=N/n2c(S)nnc2COc2ccccc2)cc1,EC50,[4],7.6 µM (active)
Oc1ccccc1/C=N/Nc1nccnc1Cl,AC50,[5],14.9 µM (active)
same,IC50,[6],15.9 µM (active)
same,EC50,[7],1.06 µM (active)
same,EC50,[8],7.95 µM (active)
same,AC50,[9],0.747 µM (active)
same,CC50,[10],8.61 µM (active)
same,EC50,[11],9.08 µM (active)
same,EC50,[12],9.82 µM (active)
same,AC50,[13],6.46 µM (active)
same,EC50,[14],4.65 µM (active)
same,EC50,[15],38.5 µM (active)
same,EC50,[16],9.43 µM (active)
Nc1ncnc2c1c(-c1ccc(Oc3ccccc3)cc1)cn2C1CCCC1,AC50,[17],inconclusive
same,AC50,[18],4.83 µM (active)
same,AC50,[19],> 70 µM (inactive)
same,CC50,[20],0.802 µM (active)
same,AC50,[13],3.03 µM (active)
same,AC50,[21],0.658 µM (active)
same,AC50,[22],15.8 µM (inconclusive)
same,AC50,[23],5.01 µM (inconclusive)
same,AC50,[24],31.7 µM (active)
same,AC50,[25],56.8 µM (active)
Cc1cc(O)c2c3c4c(cc(O)c13)C(C)(C)C(=O)c1c(O)cc(O)c(c1-4)C2=O [HELIOMYCIN],IC50,[26],0.332 µM (active)
same,IC50,[27],3.01 µM (active)
same,IC50,[28],0.0775 µM (active)
same,IC50,[29],0.082 µM (active)
same,IC50,[30],0.0709 µM (active)
same,IC50,[31],0.0754 µM (active)
same,IC50,[32],0.058 µM (active)
same,IC50,[33],0.0574 µM (active)
same,IC50,[34],> 10 µM (inactive)
same,IC50,[35],> 10 µM (inactive)
